Data on two substances can be found in patent US20120053227A1, “miR-33 INHIBITORS AND USES THEREOF” (New York University, priority 2010, published 2012).

The subject of data set [1] is Huh7 cells. In words: AKT and ERK phosphorylation after insulin stimulation. The class given is cell-based. As for the experimental part:
Cell were lysed in ice-cold buffer containing 50 mM Tris-HCl, pH 7.5, 125 mM NaCl, 1% NP-40, 5.3 mM NaF, 1.5 mM NaP and 1 mM orthovanadate, 175 mg/ml octylglucopyranoside and 1 mg/ml of protease inhibitor cocktail (Roche) and 0.25 mg/ml AEBSF (Roche). Cell lysates were rotated at 4° C. for 1 h before the insoluble material were removed by centrifugation at 12000×g for 10 min. After normalizing for equal protein concentration, cell lysates were resuspended in SDS sample buffer before separation by SDS-PAGE. Following overnight transfer of the proteins onto nitrocellulose membranes. The membranes were probed with the indicated antibodies, and protein bands were visualized using the Odyssey Infrared Imaging System (LI-COR Biotechnology). Densitometry analysis of the gels was carried out using ImageJ software from the NIH (http://rsbweb.nih.gov/ij/).
(§1) HepG2 and Huh7 cells were transfected with 40 nM miRIDIAN miRNA mimics (miR-33) or 60 nM miRIDIAN miRNA inhibitors (anti-miR-33) (Dharmacon) using Oligofectamine (Invitrogen). All experimental control samples were treated with an equal concentration of a nontargeting control mimic sequence (CM) or an inhibitor negative control sequence (CI) to control for nonsequence-specific effects in miRNA experiments

Data set [2] deals with Huh7 cells. Kind of data set: mRNA and protein expression of miR-33 target genes in transfected Huh7 cells. The data set is classed as cell-based. The settings on record: for CROT, CPT1a, HADHB, AMPKα, SIRT6, and IRS2 protein expression: to a similar extent for miR-33a and miR-33b. As for the experimental part: Total RNA was isolated using TRIzol reagent (Invitrogen) according to the manufacturer's protocol. For mRNA quantification, cDNA was synthesized using Taqman RT reagents (Applied Biosystems), following the manufacturer's protocol. Quantitative real-time PCR was performed in triplicate using iQ SYBR green Supermix (BioRad) on iCycler Real-Time Detection System (BioRad). The mRNA level was normalized to GAPDH as a house keeping gene. The primers sequences used were: […]
as §1

Another data set deals with Sirt6 3′ UTR. In words: 3′ UTR luciferase reporter assay, Sirt6. The data set is classed as cell-based, human. The source says:
(§2) cDNA fragments corresponding to the entire 3′ UTR of carnitine O-octaniltransferase (Crot), carnitine palmitoyltransferase 1A (Cpt1a), hydroxyacyl-CoAdehydrogenase (Hadhb), AMP kinase subunit-α (Ampkα), and insulin receptor substrate 2 (Irs2), citrate synthase (Cs), 3-hydroxy-3-methylglutaryl CoA (Hmgcr), and Sirtuin 6 (Sirt6) were amplified by RT-PCR from total RNA extracted from HepG2 cells with XhoI and NotI linkers. The PCR products were directionally cloned downstream of the Renilla luciferase ORF of the ψCHECK2 vector (Promega) that also contains a constitutively expressed firefly luciferase gene, which is used to normalize transfections. Point mutations in the seed region of predicted miR-33 sites within the 3′ UTR of Crot, Cpt1a, Hadhb, Ampkα, and Sirt6 were generated using Multisite-Quickchange (Stratagene) according to the manufacturer's protocol. All constructs were confirmed by sequencing. COS-7 cells were plated into 12-well plates (Costar) and cotransfected with 1 μg indicated 3′ UTR luciferase reporter vectors and the miR-33 mimic or negative control mimic (CM) (Dharmacon) using Lipofectamine 2000 (Invitrogen). Luciferase activity was measured using the Dual-Glo Luciferase Assay System (Promega). […]
Background: A reporter such as luciferase makes a cellular process visible.

Data set [3] has as its system Huh7 cells. Kind of data set: Fatty acid β-oxidation assay ([14C]-oleate). The class given is cell-based. As for the experimental part: HepG2 and Huh7 cells were transfected with miR-33 (20 nM), anti-miR-33 (40 nM), or negative control (con-miR and con-inh, respectively), and the rate of fatty acid oxidation was determined. Cells were cultured in the presence of [^14C]-oleate (Perkin-Elmer)-BSA complex, and the released [^14C]-carbon dioxide was trapped for 1 h at 37° C. onto filter paper soaked in 100 mM sodium hydroxide. The rate of β-oxidation was calculated as the amount of trapped [^14C]-carbon dioxide in relative units produced per milligram of protein per hour. Experiments were performed in triplicate in p60 plates and were repeated at least three times.

Data set [4] has as its system Huh7 cells. In words: 2-Deoxyglucose uptake. The data set is classed as cell-based. As for the experimental part: Huh7 cells were transfected with miR-33b (20 nM) or negative control (Con-miR) for 48 h. Then, cells were cultured in serum-free media for 24 h, washed two times, and placed into warmed buffer for 2 h before glucose uptake studies. Insulin (100 nM) was added for 10 min. After this, […] 2-deoxyglucose (2-DOG) was added to each well (Perkin-Elmer). After 5 min, 5% unlabeled glucose was added to stop the reaction. Cells were then washed two times in 5% glucose and lysed by the addition of 0.5% SDS; 3 mL Ultima Gold scintillant (Packard) were added, samples were vortexed, and radioactivity was counted.

Data set [5] has as its system 3′ UTR of Crot, Cpt1a, Hadhb, Ampkα, and Irs2. Kind of data set: 3′ UTR luciferase reporter assay, Crot, Cpt1a, Hadhb, Ampkα, Irs2. The class given is cell-based. The settings on record: only modest differences between miR-33a and miR-33b.
Text: as §2

In data set [6] the test system is Huh7 cells. Kind of data set: Triglyceride content and synthesis in Huh7 cells incubated with oleate and starved. The class given is cell-based. The settings on record: oleate 24 h then starved 24 h. Here is the method:
The accumulation of neutral lipids and lipid droplet formation was next evaluated tin Huh7 cells incubated with oleate for 24 h and then starved for the next 24 h. […] The increase in triglyceride content was independent of changes in triglyceride synthesis rates.

Consider “miR-33b: miR-33b transfected into Huh7 cells; human miR-33b sequence GUGCAUUGCUGUUGCAUUGC (SEQ ID NO:34) (listed as RNA, chemistry not given here; listed as Homo sapiens)”, for which the “AKT and ERK phosphorylation” value in the data set on Huh7 cells [1] was “reduced”. Moreover, in the data set with Huh7 cells [2], the “SIRT6 mRNA and protein levels” value was “significantly inhibited”; the “miR-33b expression after transfection, increase” value was found to be 32 fold; the “CROT, CPT1a, HADHB, AMPKα, SIRT6, and IRS2 protein expression” value was “inhibited”. Moreover, the “mRNA levels of CROT, CPT1a, HADHB, AMPKα, and IRS2” value in the data set on Huh7 cells [2] (anti-miR-33b: CROT, CPT1a, AMPKα, IRS2) was “significantly inhibited”. Moreover, the “3′ UTR activity of Sirt6” value in the data set with Sirt6 3′ UTR is listed as “markedly repressed”. For the same substance, in the data set on Huh7 cells [3], the “miR-33b expression, fold increase” value came to 27 fold and the “rate of fatty acid β-oxidation” value is recorded as “markedly reduced”. In the data set on Huh7 cells [4], the “insulin-induced 2-deoxyglucose (2-DOG) uptake” value is reported as “reduced”. The “3′ UTR activity of Crot, Cpt1a, Hadhb, Ampkα, and Irs2” value in data set [5] was “significantly inhibited”. Further, the “triglycerides (TAG) accumulation” value in the data set with Huh7 cells [6] was “accumulated more triglycerides”.

For “miR-33a: miR-33a transfected into Huh7 cells; human miR-33a sequence GUGCAUUGUAGUUGCAUUGCA (SEQ ID NO:32) (listed as RNA, chemistry not given here; listed as Homo sapiens)”, the “CROT, CPT1a, HADHB, AMPKα, SIRT6, and IRS2 protein expression” value in the data set on Huh7 cells [2] is “inhibited”. Moreover, the “3′ UTR activity of Crot, Cpt1a, Hadhb, Ampkα, and Irs2” value in data set [5] was “significantly inhibited”.
